From paper PMC11945486, “TAS1R2/TAS1R3 Single-Nucleotide Polymorphisms Affect Sweet Taste Receptor Activation by Sweeteners: The SWEET Project” (Nutrients, 2025)
Where two headings read alike, the source gives them in different places. No end group written: not given here.

T1: human TAS1R2-WT/TAS1R3-C757R (Homo sapiens, UniProt Q7RTX0+Q8TE23, C757R)
T1 construct: expressed in transfected cells; host or cells: HEK293T stably expressing Gα16gust44
T1 sequence (Q8TE23 20-839): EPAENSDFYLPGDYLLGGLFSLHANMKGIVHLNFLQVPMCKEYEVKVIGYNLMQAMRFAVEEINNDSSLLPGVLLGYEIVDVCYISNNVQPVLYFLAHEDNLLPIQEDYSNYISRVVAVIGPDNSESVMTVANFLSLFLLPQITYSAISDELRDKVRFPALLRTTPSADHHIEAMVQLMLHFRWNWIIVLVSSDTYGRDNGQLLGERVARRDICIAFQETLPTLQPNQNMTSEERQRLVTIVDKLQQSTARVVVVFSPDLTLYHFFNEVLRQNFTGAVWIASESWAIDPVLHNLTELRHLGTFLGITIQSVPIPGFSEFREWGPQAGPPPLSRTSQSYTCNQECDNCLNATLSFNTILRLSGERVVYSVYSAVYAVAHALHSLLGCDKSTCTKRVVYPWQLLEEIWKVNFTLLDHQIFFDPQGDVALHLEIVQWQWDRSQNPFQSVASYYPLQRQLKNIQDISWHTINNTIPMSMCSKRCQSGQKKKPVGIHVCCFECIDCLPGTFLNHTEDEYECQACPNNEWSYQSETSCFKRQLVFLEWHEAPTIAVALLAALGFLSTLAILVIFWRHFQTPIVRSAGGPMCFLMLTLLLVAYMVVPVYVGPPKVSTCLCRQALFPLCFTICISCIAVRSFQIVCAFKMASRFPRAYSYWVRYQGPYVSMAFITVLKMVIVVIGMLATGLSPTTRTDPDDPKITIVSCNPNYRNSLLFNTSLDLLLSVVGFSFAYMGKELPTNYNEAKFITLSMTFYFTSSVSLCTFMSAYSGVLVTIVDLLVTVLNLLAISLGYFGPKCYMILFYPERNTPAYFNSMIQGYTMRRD
T1 sequence (Q7RTX0 21-852 C757R): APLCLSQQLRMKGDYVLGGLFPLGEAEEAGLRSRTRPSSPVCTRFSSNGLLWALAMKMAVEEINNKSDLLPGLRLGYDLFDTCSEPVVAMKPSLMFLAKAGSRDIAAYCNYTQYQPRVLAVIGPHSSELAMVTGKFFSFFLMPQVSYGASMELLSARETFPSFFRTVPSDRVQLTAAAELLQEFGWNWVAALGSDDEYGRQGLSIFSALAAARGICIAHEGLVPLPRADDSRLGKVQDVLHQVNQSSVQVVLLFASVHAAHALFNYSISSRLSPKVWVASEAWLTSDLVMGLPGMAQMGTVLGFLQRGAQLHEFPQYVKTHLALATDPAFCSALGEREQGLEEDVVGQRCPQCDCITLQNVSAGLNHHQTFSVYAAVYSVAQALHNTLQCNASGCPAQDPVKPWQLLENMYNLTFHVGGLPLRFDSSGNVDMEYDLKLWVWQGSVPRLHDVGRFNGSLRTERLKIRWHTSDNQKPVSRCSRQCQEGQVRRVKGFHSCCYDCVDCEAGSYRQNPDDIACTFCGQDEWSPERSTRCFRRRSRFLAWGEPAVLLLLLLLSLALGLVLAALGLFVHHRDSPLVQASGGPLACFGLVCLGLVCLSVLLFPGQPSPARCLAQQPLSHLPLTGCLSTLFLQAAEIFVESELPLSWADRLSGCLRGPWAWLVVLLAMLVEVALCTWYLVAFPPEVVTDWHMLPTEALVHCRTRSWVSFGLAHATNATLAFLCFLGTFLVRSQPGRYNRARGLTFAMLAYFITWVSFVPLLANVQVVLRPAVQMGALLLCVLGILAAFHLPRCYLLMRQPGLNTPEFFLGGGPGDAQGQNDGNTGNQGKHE


Biological target: T1, human TAS1R2-WT/TAS1R3-C757R
Test: Calcium mobilisation assay, TAS1R2-WT with TAS1R3 variant C757R
Assay type: cell-based
Conditions: for Max ΔF/F0: maximal signal amplitude
From the text: The coding sequences for TAS1R2 and TAS1R3 were commercially synthesised, and the human codon was optimised for expression in human cells. The coding sequences of human TAS1R2 and TAS1R3 were subcloned and inserted into the mammalian expression vectors pcDNA6/myc-HisA and pcDNA4/myc-HisA (Invitrogen; Thermo Fisher Scientific; Illkirch, France) between the EcoRI and NotI restriction sites, generating the plasmids pcDNA6-TAS1R2 and pcDNA4-TAS1R3, respectively. To increase protein expression in mammalian cells, an upstream start codon was used, which was a sequence called MAX, corresponding to the QBI SP163 element also described in pcDNA4-HisMax (Invitrogen; Thermo Fisher Scientific; Illkirch, France). To measure the expression level of the receptor by immunohistochemistry, we used the FLAG sequence ([…]) in the C-terminal position, which encodes the FLAG tag epitope. SNP variants of TAS1R2 and TAS1R3 were constructed based on […], respectively, using site-directed mutagenesis (Genewiz; Leipzig, Germany).
The HEK293T cells were kindly provided by Jay P. Slack (Givaudan Flavors Corporation; Cincinnati, OH, USA). HEK293T cells stably transfected with Gα16gust44 [43, 67] were seeded in poly-D-lysine-coated clear-bottom black 96-well plates (0.35 × 10^5 cells/well) in high-glucose DMEM supplemented with 2 mM GlutaMAX, 10% dialysed foetal bovine serum with penicillin/streptomycin and G418 (400 μg/mL) at 37 °C and 6.3% CO2 in a humidified atmosphere as previously reported. […] As a negative control, HEK293T cells were mock-transfected with the empty expression vector. After a further 24 h of incubation, the HEK293T cells were washed with C1 buffer (130 mM NaCl, 5 mM KCl, 10 mM HEPES pH 7.4 and 2 mM CaCl2). The 96-well plates containing the cells were then stimulated with sweet-tasting compounds. […] Different concentration ranges were tested depending on the sweet compound injected. The Ca^2+ changes were expressed as fractional changes in fluorescent light intensity: ΔF/F = (F − F0)/F0, where F was the fluorescent light intensity at each point, and F0 was the value of emitted fluorescent light prior to stimulus application. To calculate dose–response relationships, the changes in fluorescence upon stimulus application were averaged, mock-subtracted and baseline-corrected. The dose–response data obtained were adjusted using a 4-parameter logistic equation. The half-maximal effective concentrations (EC50 values) and maximal signal amplitudes were calculated using SigmaPlot software (version 15.0) (Systat Software; San Jose, CA, USA).
For in vitro calcium mobilisation assay performed on hTAS1R2-SNPs, hTAS1R3-SNPs and mTAS1R3-I60T, 6 to 7 concentrations were tested for each sweet compound, plus buffer alone. All concentration–receptor combinations were measured in duplicate, and each experiment was repeated at least 4 times (8 wells/concentration). Results were expressed for each concentration as ΔF/F mean ± SEM and represented as dose–response curves.

R1 = Variant EC50/WT EC50 | Max ΔF/F0 | EC50 (read-out: EC50) [µM] | EC50 (brazzein) [mg/L] | Molecule
1.0 | 0.84 ± 0.03 | 113 ± 10 | – | OC[C@H]1O[C@H](O[C@]2(CCl)O[C@H](CCl)[C@@H](O)[C@@H]2O)[C@H](O)[C@@H](O)[C@H]1Cl [Sucralose]
0.7 | 0.86 ± 0.06 | – | 74.2 ± 1.9 | brazzein (QDKCKKVYENYPVSKCQLANQCNYDCKLDKHARSGECFYDEKRNLQCICDYCEY; ends and bridges not checked; cysteine pairing not given here; UniProt P56552 1-54, looked up) [sweet-tasting protein obtained by recombinant production using the yeast Pichia pastoris]
0.6 | 0.69 ± 0.05 | – | – | thaumatin
– | – | 6.7 ± 1.4 | – | thaumatin (protein, Eight disulfides, sweet-tasting plant protein, E957) ATFEIVNRCSYTVWAAASKGDAALDAGGRQLNSGESWTINVEPGTKGGKIWARTDCYFDDSGSGICKTGDCGGLLRCKRFGRPPTTLAEFSLNQYGKDYIDISNIKGFNVPMDFSPTTRGCRGVRCAADIVGQCPAKLKAPGGGCNDACTVFQTSEYCCTTGKCGPTEYSRFFKRLCPDAFSYVLDKPTTVTCPGSSNYRVTFCPTA

Second part, the molecule before the results:

Molecule | R1 = Variant EC50/WT EC50 | Max ΔF/F0 | EC50 (read-out: EC50) [µM] | EC50 (brazzein) [mg/L]
CC1=CC(=O)NS(=O)(=O)O1 [Acesulfame K, acesulfame K] | 0.8 | 0.42 ± 0.01 | 468 ± 31 | –
O=S(=O)(O)NC1CCCCC1 [Cyclamate, cyclamate] | – | – | 1150 ± 54 | –
C[C@H](CC[C@@H](O[C@@H]1O[C@H](CO[C@@H]2O[C@H](CO)[C@@H](O)[C@H](O)[C@H]2O)[C@@H](O)[C@H](O)[C@H]1O[C@@H]1O[C@H](CO)[C@@H](O)[C@H](O)[C@H]1O)C(C)(C)O)[C@H]1CC[C@@]2(C)[C@@H]3CC=C4[C@@H](CC[C@H](O[C@@H]5O[C@H](CO[C@@H]6O[C@H](CO)[C@@H](O)[C@H](O)[C@H]6O)[C@@H](O)[C@H](O)[C@H]5O)C4(C)C)[C@]3(C)[C@H](O)C[C@]12C [Mogroside V, mogroside V] | 0.7 | 1.03 ± 0.02 | 21.7 ± 1 | –
COc1ccc(CCC(=O)c2c(O)cc(O[C@@H]3O[C@H](CO)[C@@H](O)[C@H](O)[C@H]3O[C@@H]3O[C@@H](C)[C@H](O)[C@@H](O)[C@H]3O)cc2O)cc1O [NHDC, neohesperidin dihydrochalcone] | 0.7 | 0.98 ± 0.01 | 36.5 ± 16 | –
COC(=O)[C@H](Cc1ccccc1)NC(=O)[C@H](CC(=O)O)NCCC(C)(C)C [Neotame] | 0.7 | 0.75 ± 0.03 | 0.88 ± 0.12 | –
C=C(C)[C@@H]1CC=C(/C=N/O)CC1 [Perillartine, perillartine] | 0.6 | 1.23 ± 0.13 | 8.1 ± 2.6 | –
C=C1C[C@@]23CC[C@H]4[C@@](C)(CCC[C@@]4(C)C(=O)O[C@@H]4O[C@H](CO)[C@@H](O)[C@H](O[C@@H]5O[C@H](CO)[C@@H](O)[C@H](O)[C@H]5O)[C@H]4O[C@@H]4O[C@H](CO)[C@@H](O)[C@H](O)[C@H]4O)[C@@H]2CC[C@]1(O[C@@H]1O[C@H](CO)[C@@H](O)[C@H](O[C@@H]2O[C@H](CO)[C@@H](O)[C@H](O)[C@H]2O)[C@H]1O[C@@H]1O[C@H](CO)[C@@H](O)[C@H](O)[C@H]1O)C3 [Rebaudioside M, rebaudioside M] | 0.6 | 1.13 ± 0.04 | 24.3 ± 2.2 | –
